Reference: the supplement of paper PMC7108870

Columns and labels:
HEK293sieSTAT3(Y640F) [1] = test: drug sensitivity score (DSS), cytotoxicity CellTox Green (DSS (dimensionless)); higher = more cytotoxic; extreme values may be limits of the assay; details: 72 h; STAT3 variant: Y640F (constitutively active)
Outline: (§1)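 A drug sensitivity score, based on the area of the dose-response curve, was calculated in Breeze after normalising values to negative and positive control wells. It came from HEK293 cells carrying a STAT3-dependent luciferase reporter and overexpressing wild-type or mutant STAT3, plated at 20 μl of 100,000 cells/ml onto compounds acoustically pre-plated at 5 concentrations in 10-fold dilutions in 384-well plates. Following 72 hours at 37°C and 5% CO2, CellTox Green fluorescence (485/520 nm) and then CellTiter-Glo luminescence were read on a PHERAstar FS.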

HEK293sieSTAT3(wt) [2] = test: as above; details: 72 h; STAT3 variant: wild type
Outline: as §1

HEK293sieSTAT3(Y640F) [3] = test: drug sensitivity score (DSS), viability CellTiter-Glo (DSS (dimensionless)); higher = more growth inhibition; extreme values may be limits of the assay; details: 72 h; STAT3 variant: Y640F (constitutively active)
Outline: as §1

HEK293sieSTAT3(wt) [4] = test: as above; details: 72 h; STAT3 variant: wild type
Outline: as §1

| Compound | drug sensitivity score (HEK293sieSTAT3(Y640F) [1]) | drug sensitivity score (HEK293sieSTAT3(wt) [2]) | drug sensitivity score (HEK293sieSTAT3(Y640F) [3]) | drug sensitivity score (HEK293sieSTAT3(wt) [4]) |
| --- | --- | --- | --- | --- |
| CON(C)C(=O)N1N=C(c2cc(F)ccc2F)S[C@@]1(CCCN)c1ccccc1 [Filanesib] (top concentration tested 1000 nM) | 0.58 | 17 | 15 | 21.2 |
| O=C(Nc1nc2cccc(-c3ccc(CN4CCS(=O)(=O)CC4)cc3)n2n1)C1CC1 [Filgotinib] (top concentration tested 10000 nM) | 5.91 | 6.22 | 8.86 | 6.84 |
| CC(C)(C)NC(=O)[C@H]1CC[C@H]2[C@@H]3CC[C@H]4NC(=O)C=C[C@]4(C)[C@H]3CC[C@]12C [Finasteride] (top concentration tested 10000 nM) | 0.18 | 1.18 | 3.82 | 1.63 |
| CCCCCCCCc1ccc(CCC(N)(CO)CO)cc1 [Fingolimod] (top concentration tested 10000 nM) | 5.85 | 7.2 | 6.17 | 8.27 |
| O=c1[nH]c(=O)n([C@H]2C[C@H](O)[C@@H](CO)O2)cc1F [Floxuridine] (top concentration tested 10000 nM) | 0.42 | 1.28 | 27.2 | 29 |
| Nc1nc(F)nc2c1ncn2[C@@H]1O[C@H](CO)[C@@H](O)[C@@H]1O [Fludarabine] (top concentration tested 10000 nM) | 0 | 0 | 0.19 | 3.07 |
| O=c1[nH]cc(F)c(=O)[nH]1 [Fluorouracil] (top concentration tested 10000 nM) | 0 | 0 | 6.62 | 6.27 |
| CC(C)C(=O)Nc1ccc([N+](=O)[O-])c(C(F)(F)F)c1 [Flutamide] (top concentration tested 10000 nM) | 0 | 0 | 0.25 | 0 |
| COc1cc2c(Oc3ccc(NC(=O)C4(C(=O)Nc5ccc(F)cc5)CC4)cc3F)ccnc2cc1OCCCN1CCOCC1 [Foretinib] (top concentration tested 1000 nM) | 0 | 5.97 | 6.63 | 5.99 |
| COc1cc(Nc2ncc(F)c(Nc3ccc4c(n3)N(COP(=O)(O)O)C(=O)C(C)(C)O4)n2)cc(OC)c1OC [Fostamatinib] (top concentration tested 2500 nM) | 2.07 | 3.18 | 4.33 | 4.18 |
| C[C@]12CC[C@@H]3c4ccc(O)cc4C[C@@H](CCCCCCCCC[S+]([O-])CCCC(F)(F)C(F)(F)F)[C@H]3[C@@H]1CC[C@@H]2O (stereo not given in full) [Fulvestrant] (top concentration tested 1000 nM) | 0 | 0.46 | 1.69 | 1.8 |
| O=C(NOCCO)c1ccc2cncn2c1Nc1ccc(I)cc1F [GDC-0623] (top concentration tested 2500 nM) | 0 | 0 | 0 | 0 |
| Cn1nccc1Nc1nccc(-c2ccn([C@H](CO)c3ccc(Cl)c(F)c3)c(=O)c2)n1 [GDC-0994] (top concentration tested 10000 nM) | 0 | 0 | 8.52 | 6.43 |
| CNc1nc(Nc2cn(C(C)(C)C#N)nc2C)ncc1C(F)(F)F [GNE-0877] (top concentration tested 1000 nM) | 0 | 0 | 3.78 | 0.56 |
| CCNc1nc(Nc2cc(F)c(C(=O)N3CCOCC3)cc2OC)ncc1C(F)(F)F [GNE-7915] (top concentration tested 1000 nM) | 0 | 0 | 4.87 | 2.71 |
| CCCc1cc(C)[nH]c(=O)c1CNC(=O)c1cc(-c2ccnc(N3CCN(C)CC3)c2)cc2c1cnn2C(C)C [GSK343] (top concentration tested 10000 nM) | 5.89 | 6.89 | 6.55 | 7.6 |
| CCCOc1ccn2c(C(C)=O)cc(-c3ccccc3S(C)(=O)=O)c2c1 [GSK2801] (top concentration tested 10000 nM) | 0 | 0 | 0 | 0 |
| CCOC(=O)CCNc1cc(N2CCc3ccccc3CC2)nc(-c2ccccn2)n1 [GSK-J4] (top concentration tested 100000 nM) | 10.8 | 10.9 | 18.8 | 19.4 |
| C[C@@H]1C=C2C(=O)O[C@@H]3CC[C@H](C1)[C@]23O [Galiellalactone] (top concentration tested 25000 nM) | 0.48 | 3.45 | 4.57 | 4.61 |
| Cc1cccc(-c2nn3c(c2-c2ccnc4ccc(C(N)=O)cc24)CCC3)n1 [Galunisertib] (top concentration tested 1000 nM) | 1.47 | 0 | 0 | 0 |
